{"source": "patent US20060198914A1", "about": "“Use of rutin and isoharmnetin for treating depressive states and depression and other emotion disorders” (Bioplanta Arzneimittel GmbH, priority 2003, published 2006)", "tested_on": "rats", "experiment": "forced swimming test in rats", "format": "in vivo", "method": "The antidepressive efficacy was examined by means of the so-called “forced swimming test” in rats. In performing this test rats are brought into an impasse situation (glass cylinder filled with water) over a specified period of 5 minutes. In this test the rats react with a rigor referred to as an immobilization period which is interpreted as a correlative to a depression. If the rats are treated with medicaments having an antidepressive efficacy before carrying out the test, the immobilization period is decreased. Since other psychotropic drugs such as anxiolytics or neuroleptics are not effective in this test, this test system is well suitable for detecting antidepressive effects (Porsolt et al. 1978; Porsolt, 1991). In this test all hitherto known antidepressives have to be administered over a period of several days in order to be effective (similar to the administration to patients). The test animals were treated either with the test substance or for control purposes with the solvent only or with the tricyclic antidepressive imipramine for a comparison of the efficacy.\nThe following tables exemplarily show the efficacy of rutin, isorhamnetin and plant extracts containing isorhamnetin derivatives or rutin in sufficient amounts. In each table the inhibition of the immobility is expressed in terms of % inhibition against the control group for comparison purposes."}
{"smiles": "CN(C)CCCN1c2ccccc2CCc2ccccc21", "note": "[Imipramine, imipramine, reference compound]", "values": [{"measurement": "Inhibition of immobility [% of the control]", "setting": "Table 1, dose 30 mg/kg", "value": "46 % of the control"}, {"measurement": "Inhibition of immobility [% of the control]", "setting": "Table 2, dose 3 mg/kg", "value": "3 % of the control"}, {"measurement": "Inhibition of immobility [% of the control]", "setting": "Table 2, dose 10 mg/kg", "value": "24 % of the control"}, {"measurement": "Inhibition [% of the control]", "setting": "Table 3, dose 20 mg/kg", "value": "43 % of the control"}, {"measurement": "Inhibition [% of the control]", "setting": "Table 4, dose 20 mg/kg", "value": "43 % of the control"}, {"measurement": "Inhibition [% of the control]", "setting": "Table 5, dose 30 mg/kg", "value": "64 % of the control"}]}
{"smiles": "COc1cc(-c2oc3cc(O)cc(O)c3c(=O)c2O)ccc1O", "note": "[Isorhamnetin, 3,5,7-trihydroxy-2-(4-hydroxy-3-methoxyphenyl)-4H-1-benzopyran-4-one]", "values": [{"measurement": "Inhibition of immobility [% of the control]", "setting": "Table 2, dose 3 mg/kg", "value": "17 % of the control"}, {"measurement": "Inhibition of immobility [% of the control]", "setting": "Table 2, dose 10 mg/kg", "value": "56 % of the control"}]}
{"smiles": "C[C@@H]1O[C@@H](OC[C@H]2O[C@@H](Oc3c(-c4ccc(O)c(O)c4)oc4cc(O)cc(O)c4c3=O)[C@H](O)[C@@H](O)[C@@H]2O)[C@H](O)[C@H](O)[C@H]1O", "note": "[Rutin, 3-[[6-O-(6-deoxy-α-L-mannopyranosyl)-β-D-glucopyranosyl]oxy]-2-(3,4-dihydroxyphenyl)-5,7-dihydroxy-4H-1-benzopyran-4-one]", "values": [{"measurement": "Inhibition of immobility [% of the control]", "setting": "Table 1, dose 3 mg/kg", "value": "8 % of the control"}, {"measurement": "Inhibition of immobility [% of the control]", "setting": "Table 1, dose 6 mg/kg", "value": "41 % of the control"}, {"measurement": "Inhibition of immobility [% of the control]", "setting": "Table 1, dose 12 mg/kg", "value": "42 % of the control"}, {"measurement": "Inhibition of immobility [% of the control]", "setting": "Table 1, dose 24 mg/kg", "value": "49 % of the control"}, {"measurement": "Inhibition of immobility [% of the control]", "setting": "Table 1, dose 48 mg/kg", "value": "74 % of the control"}]}
